Reference: patent US20220395553A1, “CXCR4 ANTAGONIST PEPTIDES” (COHBAR, INC., priority 2019, published 2022)
Square brackets hold non-standard residues; d marks the D form. Peptide text beside a SMILES is read from it.

Target: human CXCR4 (Homo sapiens, UniProt P61073)
Assay: CXCR4/CXCL12 binding, HTRF format, single concentration (Example 23)
Parameters: host or cells: HEK293 (Tag-lite CXCR4 cells, frozen aliquots, transient expression)
Conditions: 15 nM CXCR4R fluorescent probe, 3 hours, HEK293 Tag-lite CXCR4 cells
Method: Peptides were initially prepared as 1 mM stock in H2O and tested at a final concentration of 400 nM. Following the manufacture's protocol, a frozen aliquot of Tag-lite CXCR4 cells was thawed and immediately seeded onto 384-well plates in TLB. Immediately following the addition of cells, 400 nM peptide (final concentration) in TLB was added to the appropriate well. Then 15 nM (final concentration; EC80) of CXCR4R fluorescent probe was added to each well to initiate the HTRF assay. The plates were covered in aluminum foil and left at room temperature for 3 hours. Following the 3 hour incubation period, the plates were removed from the incubator and fluorescence measured using a Cytation 1 plate reader using a HTRF filter cube ([…]; BioTek; Winooski, Vt.). According manufacture's instruction data reduction was performed by calculating the ratio of 665 nm signal (TRF of 665 nm excitation by 620 emission; amount of CXCR4R fluorescent probe bound to terbium labeled CXCR receptor)/620 nm signal (620 excitation by 330 nm light source; normalization factor for amount of terbium labeled CXCR4 receptor in well)×10,000.

Sequence of human CXCR4 (P61073 whole entry): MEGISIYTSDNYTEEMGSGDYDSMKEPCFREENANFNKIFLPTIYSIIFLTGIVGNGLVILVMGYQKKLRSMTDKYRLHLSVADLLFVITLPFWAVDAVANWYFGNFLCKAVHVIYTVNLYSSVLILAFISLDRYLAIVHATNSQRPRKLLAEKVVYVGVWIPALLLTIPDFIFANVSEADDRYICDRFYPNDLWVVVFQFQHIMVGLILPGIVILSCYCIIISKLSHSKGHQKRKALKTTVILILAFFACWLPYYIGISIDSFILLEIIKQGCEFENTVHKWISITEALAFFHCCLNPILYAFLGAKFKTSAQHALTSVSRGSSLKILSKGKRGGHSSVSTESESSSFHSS

Row | Percent Inhibition of CXCR4/CXCL12 Binding (400 nM peptide) | Compound
1 | −8% | CC(C)C[C@H](NC(=O)[C@H](CO)NC(=O)[C@H](CO)NC(=O)[C@H](CCCNC(=N)N)NC(=O)[C@@H](NC(=O)[C@H](CO)NC(=O)[C@H](Cc1c[nH]cn1)NC(=O)[C@H](Cc1c[nH]cn1)NC(=O)[C@H](Cc1ccc(O)cc1)NC(=O)[C@H](CCCNC(=N)N)NC(=O)[C@@H](N)CCCNC(=N)N)C(C)C)C(=O)N[C@@H](CCCNC(=N)N)C(=O)N1CCC[C@H]1C(=O)N[C@@H](Cc1ccc(O)cc1)C(=O)N[C@H](C(=O)N[C@@H](CCCCN)C(=O)O)[C@@H](C)O [compound 10] (H-RRYHHSVRSSLRPYTK-OH; N-terminus and C-terminus assumed)
2 | 44% | CC(C)C[C@H](NC(=O)[C@H](CO)NC(=O)[C@H](CO)NC(=O)[C@H](CCCNC(=N)N)NC(=O)[C@@H](NC(=O)[C@H](CO)NC(=O)[C@H](Cc1c[nH]cn1)NC(=O)[C@H](Cc1c[nH]cn1)NC(=O)[C@H](Cc1ccc(O)cc1)NC(=O)[C@H](CCCNC(=N)N)NC(=O)[C@H](CCC(=O)O)NC(=O)[C@@H](N)CC(C)C)C(C)C)C(=O)N[C@@H](CCCNC(=N)N)C(=O)N1CCC[C@H]1C(=O)N[C@@H](Cc1ccc(O)cc1)C(=O)O [compound 19] (H-LERYHHSVRSSLRPY-OH; N-terminus and C-terminus assumed)
3 | 37% | CC(C)C[C@H](NC(=O)[C@H](CO)NC(=O)[C@H](CO)NC(=O)[C@H](CCCNC(=N)N)NC(=O)[C@@H](NC(=O)[C@H](CO)NC(=O)[C@H](Cc1c[nH]cn1)NC(=O)[C@H](Cc1c[nH]cn1)NC(=O)[C@H](Cc1ccc(O)cc1)NC(=O)[C@H](CCCNC(=N)N)NC(=O)[C@H](CCC(=O)O)NC(=O)[C@@H](N)CC(C)C)C(C)C)C(=O)N[C@@H](CCCNC(=N)N)C(=O)N1CCC[C@H]1C(=O)O [compound 20] (H-LERYHHSVRSSLRP-OH; N-terminus and C-terminus assumed)
4 | 20% | CC(C)C[C@H](NC(=O)[C@H](CO)NC(=O)[C@H](CO)NC(=O)[C@H](CCCNC(=N)N)NC(=O)[C@@H](NC(=O)[C@H](CO)NC(=O)[C@H](Cc1c[nH]cn1)NC(=O)[C@H](Cc1c[nH]cn1)NC(=O)[C@H](Cc1ccc(O)cc1)NC(=O)[C@H](CCCNC(=N)N)NC(=O)[C@H](CCC(=O)O)NC(=O)[C@@H](N)CC(C)C)C(C)C)C(=O)N[C@@H](CCCNC(=N)N)C(=O)O [compound 21] (H-LERYHHSVRSSLR-OH; N-terminus and C-terminus assumed)
5 | 8% | CC(C)C[C@H](NC(=O)[C@H](CO)NC(=O)[C@H](CO)NC(=O)[C@H](CCCNC(=N)N)NC(=O)[C@@H](NC(=O)[C@H](CO)NC(=O)[C@H](Cc1c[nH]cn1)NC(=O)[C@H](Cc1c[nH]cn1)NC(=O)[C@H](Cc1ccc(O)cc1)NC(=O)[C@H](CCCNC(=N)N)NC(=O)[C@H](CCCNC(=N)N)NC(=O)[C@@H](N)CC(C)C)C(C)C)C(=O)N[C@@H](CCCNC(=N)N)C(=O)N1CCC[C@H]1C(=O)N[C@@H](Cc1ccc(O)cc1)C(=O)N[C@H](C(=O)O)[C@@H](C)O [compound 24] (H-LRRYHHSVRSSLRPYT-OH; N-terminus and C-terminus assumed)
6 | 0% | CC(C)C[C@H](NC(=O)[C@H](CO)NC(=O)[C@H](CO)NC(=O)[C@H](CCCNC(=N)N)NC(=O)[C@@H](NC(=O)[C@H](CO)NC(=O)[C@H](Cc1c[nH]cn1)NC(=O)[C@H](Cc1c[nH]cn1)NC(=O)[C@H](Cc1ccc(O)cc1)NC(=O)[C@H](CCCNC(=N)N)NC(=O)[C@H](CCCNC(=N)N)NC(=O)[C@@H](N)CC(C)C)C(C)C)C(=O)N[C@@H](CCCNC(=N)N)C(=O)N1CCC[C@H]1C(=O)N[C@@H](Cc1ccc(O)cc1)C(=O)O [compound 25] (H-LRRYHHSVRSSLRPY-OH; N-terminus and C-terminus assumed)
7 | 1% | CC(C)C[C@H](NC(=O)[C@H](CO)NC(=O)[C@H](CO)NC(=O)[C@H](CCCNC(=N)N)NC(=O)[C@@H](NC(=O)[C@H](CO)NC(=O)[C@H](Cc1c[nH]cn1)NC(=O)[C@H](Cc1c[nH]cn1)NC(=O)[C@H](Cc1ccc(O)cc1)NC(=O)[C@H](CCCNC(=N)N)NC(=O)[C@H](CCCNC(=N)N)NC(=O)[C@@H](N)CC(C)C)C(C)C)C(=O)N[C@@H](CCCNC(=N)N)C(=O)N1CCC[C@H]1C(=O)O [compound 26] (H-LRRYHHSVRSSLRP-OH; N-terminus and C-terminus assumed)

Second part, the compound before the results:

Row | Compound | Percent Inhibition of CXCR4/CXCL12 Binding (400 nM peptide)
8 | CC(C)C[C@H](N)C(=O)N[C@@H](CCC(=O)O)C(=O)N[C@@H](CCCNC(=N)N)C(=O)N[C@@H](Cc1ccc(O)cc1)C(=O)N[C@@H](Cc1c[nH]cn1)C(=O)N[C@@H](Cc1c[nH]cn1)C(=O)N[C@@H](CO)C(=O)N[C@H](C(=O)N[C@@H](CCCNC(=N)N)C(=O)N[C@@H](CO)C(=O)N[C@@H](CO)C(=O)O)C(C)C [compound 23] (H-LERYHHSVRSS-OH; N-terminus and C-terminus assumed) | 23%
9 | CC(C)C[C@H](NC(=O)[C@H](CO)NC(=O)[C@H](CO)NC(=O)[C@H](CCCNC(=N)N)NC(=O)[C@@H](NC(=O)[C@H](CO)NC(=O)[C@H](Cc1c[nH]cn1)NC(=O)[C@H](Cc1c[nH]cn1)NC(=O)[C@H](Cc1ccc(O)cc1)NC(=O)[C@H](CCCNC(=N)N)NC(=O)[C@H](CCCNC(=N)N)NC(=O)[C@@H](N)CC(C)C)C(C)C)C(=O)N[C@@H](CCCNC(=N)N)C(=O)O [compound 27] (H-LRRYHHSVRSSLR-OH; N-terminus and C-terminus assumed) | 10%
10 | CC(C)C[C@H](N)C(=O)N[C@@H](CCCNC(=N)N)C(=O)N[C@@H](CCCNC(=N)N)C(=O)N[C@@H](Cc1ccc(O)cc1)C(=O)N[C@@H](Cc1c[nH]cn1)C(=O)N[C@@H](Cc1c[nH]cn1)C(=O)N[C@@H](CO)C(=O)N[C@H](C(=O)N[C@@H](CCCNC(=N)N)C(=O)N[C@@H](CO)C(=O)N[C@@H](CO)C(=O)O)C(C)C [compound 29] (H-LRRYHHSVRSS-OH; N-terminus and C-terminus assumed) | 14%
11 | CC(C)C[C@H](NC(=O)[C@H](CO)NC(=O)[C@H](CO)NC(=O)[C@H](CCCNC(=N)N)NC(=O)[C@@H](NC(=O)[C@H](CO)NC(=O)[C@H](Cc1c[nH]cn1)NC(=O)[C@H](CC(N)=O)NC(=O)[C@H](Cc1ccc(O)cc1)NC(=O)[C@H](CCCNC(=N)N)NC(=O)[C@H](CCC(=O)O)NC(=O)[C@@H](N)CC(C)C)C(C)C)C(=O)N[C@@H](CCCNC(=N)N)C(=O)N1CCC[C@H]1C(=O)N[C@@H](Cc1ccc(O)cc1)C(=O)N[C@H](C(=O)N[C@@H](CCCCN)C(=O)O)[C@@H](C)O [compound 42] (H-LERYNHSVRSSLRPYTK-OH; N-terminus and C-terminus assumed) | 32%
12 | CC(C)C[C@H](NC(=O)[C@H](CO)NC(=O)[C@H](CO)NC(=O)[C@H](CCCNC(=N)N)NC(=O)[C@@H](NC(=O)[C@H](CO)NC(=O)[C@H](CC(N)=O)NC(=O)[C@H](Cc1c[nH]cn1)NC(=O)[C@H](Cc1ccc(O)cc1)NC(=O)[C@H](CCCNC(=N)N)NC(=O)[C@H](CCCNC(=N)N)NC(=O)[C@@H](N)CC(C)C)C(C)C)C(=O)N[C@@H](CCCNC(=N)N)C(=O)N1CCC[C@H]1C(=O)N[C@@H](Cc1ccc(O)cc1)C(=O)N[C@H](C(=O)N[C@@H](CCCCN)C(=O)O)[C@@H](C)O [compound 44] (H-LRRYHNSVRSSLRPYTK-OH; N-terminus and C-terminus assumed) | 0%
13 | CC(C)C[C@H](NC(=O)[C@H](CO)NC(=O)[C@H](CO)NC(=O)[C@H](CCCNC(=N)N)NC(=O)[C@@H](C)NC(=O)[C@H](CO)NC(=O)[C@H](CC(N)=O)NC(=O)[C@H](Cc1c[nH]cn1)NC(=O)[C@H](Cc1ccc(O)cc1)NC(=O)[C@H](CCCNC(=N)N)NC(=O)[C@H](CCC(=O)O)NC(=O)[C@@H](N)CC(C)C)C(=O)N[C@@H](CCCNC(=N)N)C(=O)N1CCC[C@H]1C(=O)N[C@@H](Cc1ccc(O)cc1)C(=O)N[C@H](C(=O)N[C@@H](CCCCN)C(=O)O)[C@@H](C)O [compound 46] (H-LERYHNS[dA]RSSLRPYTK-OH; N-terminus and C-terminus assumed) | −4%
14 | CC(C)C[C@H](NC(=O)[C@H](CO)NC(=O)[C@H](CO)NC(=O)[C@H](CCCNC(=N)N)NC(=O)[C@@H](NC(=O)[C@H](CO)NC(=O)[C@H](Cc1c[nH]cn1)NC(=O)[C@H](CCC(N)=O)NC(=O)[C@H](Cc1ccc(O)cc1)NC(=O)[C@H](CCCNC(=N)N)NC(=O)[C@H](CCC(=O)O)NC(=O)[C@@H](N)CC(C)C)C(C)C)C(=O)N[C@@H](CCCNC(=N)N)C(=O)N1CCC[C@H]1C(=O)N[C@@H](Cc1ccc(O)cc1)C(=O)N[C@H](C(=O)N[C@@H](CCCCN)C(=O)O)[C@@H](C)O [compound 48] (H-LERYQHSVRSSLRPYTK-OH; N-terminus and C-terminus assumed) | 13%
15 | CC(C)C[C@H](NC(=O)[C@H](CO)NC(=O)[C@H](CO)NC(=O)[C@H](CCCNC(=N)N)NC(=O)[C@@H](C)NC(=O)[C@H](CO)NC(=O)[C@H](Cc1c[nH]cn1)NC(=O)[C@H](CCC(N)=O)NC(=O)[C@H](Cc1ccc(O)cc1)NC(=O)[C@H](CCCNC(=N)N)NC(=O)[C@H](CCC(=O)O)NC(=O)[C@@H](N)CC(C)C)C(=O)N[C@@H](CCCNC(=N)N)C(=O)N1CCC[C@H]1C(=O)N[C@@H](Cc1ccc(O)cc1)C(=O)N[C@H](C(=O)N[C@@H](CCCCN)C(=O)O)[C@@H](C)O [compound 49] (H-LERYQHS[dA]RSSLRPYTK-OH; N-terminus and C-terminus assumed) | 20%
